ChEMBL document CHEMBL6078711, “Design, synthesis, and biological evaluation of steroidal indole derivatives as membrane-targeting antibacterial candidates” (Eur J Med Chem, 2025)
Values after ≈ are worked out from the molar mass of the structure shown. Active and inactive are the calls of the source. No cut-off for these calls is given here.

Columns and labels:
Staphylococcus aureus [1] = assay: Antibacterial activity against Staphylococcus aureus CGMCC1.8721 assessed as reduction in bacterial growth in presence of phosphatidylglycerol; assay type: functional
Staphylococcus aureus [2] = assay: Antibacterial activity against methicillin-resistant Staphylococcus aureus ATCC 33591 assessed as reduction in bacterial growth; assay type: functional
Staphylococcus aureus [3] = assay: Antibacterial activity against Staphylococcus aureus CGMCC1.8721 assessed as reduction in bacterial growth; assay type: functional
Staphylococcus aureus [4] = assay: Antibacterial activity against methicillin-resistant Staphylococcus aureus CGMCC 1.12409 assessed as reduction in bacterial growth; assay type: functional
Staphylococcus aureus [5] = assay: Antibacterial activity against methicillin-resistant Staphylococcus aureus ATCC 43300 assessed as reduction in bacterial growth; assay type: functional
Staphylococcus aureus [6] = assay: Bactericidal activity against methicillin-resistant Staphylococcus aureus ATCC 43300 assessed as reduction in bacterial growth; assay type: functional
Staphylococcus aureus [7] = assay: Bactericidal activity against methicillin-resistant Staphylococcus aureus CGMCC 1.12409 assessed as reduction in bacterial growth; assay type: functional
Staphylococcus aureus [8] = assay: Bactericidal activity against Staphylococcus aureus CGMCC1.8721 assessed as reduction in bacterial growth; assay type: functional
Staphylococcus aureus [9] = assay: Bactericidal activity against methicillin-resistant Staphylococcus aureus ATCC 33591 assessed as reduction in bacterial growth; assay type: functional
Staphylococcus aureus [10] = assay: Antibacterial activity against Methicillin-resistant Staphylococcus aureus CGMCC1.8721 infected in mouse skin infection model assessed as reduction in bacterial clones at 5 mg/kg, sc; assay type: functional, organism-based
Staphylococcus aureus [11] = assay: Antibacterial activity against Methicillin-resistant Staphylococcus aureus CGMCC1.8721 infected in mouse skin infection model assessed as reduction in bacterial load at 5 mg/kg, sc; assay type: functional; set-up: scale not given: the % may be the effect or the level left

## CCCCCCCCCC(=O)N[C@@H](Cc1c[nH]c2ccccc12)C(=O)N[C@@H](CC(N)=O)C(=O)N[C@@H](CC(=O)O)C(=O)N[C@@H]1C(=O)NCC(=O)N[C@@H](CCCN)C(=O)N[C@@H](CC(=O)O)C(=O)N[C@H](C)C(=O)N[C@@H](CC(=O)O)C(=O)NCC(=O)N[C@H](CO)C(=O)N[C@@H]([C@@H](C)CC(=O)O)C(=O)N[C@@H](CC(=O)c2ccccc2N)C(=O)O[C@@H]1C
Staphylococcus aureus [1]
  Activity: Active

## C[C@H](Cc1c[nH]c2ccc(CN3CCSCC3)cc12)[C@H]1CC[C@H]2[C@@H]3CC[C@@H]4C[C@H](O)CC[C@]4(C)[C@H]3CC[C@]12C
Staphylococcus aureus [2]
  MIC: 16 µg/mL (≈ 29.2 µM)
Staphylococcus aureus [3]
  MIC: 8 µg/mL (≈ 14.6 µM)
Staphylococcus aureus [4]
  MIC: 16 µg/mL (≈ 29.2 µM)
Staphylococcus aureus [5]
  MIC: 16 µg/mL (≈ 29.2 µM)

## C[C@H](Cc1c[nH]c2ccc(CNCCCl)cc12)[C@H]1CC[C@H]2[C@@H]3CC[C@@H]4C[C@H](O)CC[C@]4(C)[C@H]3CC[C@]12C
Staphylococcus aureus [3]
  MIC: 32 µg/mL (≈ 60.9 µM)

## CNCc1ccc2[nH]cc(C[C@@H](C)[C@H]3CC[C@H]4[C@@H]5CC[C@@H]6C[C@H](O)CC[C@]6(C)[C@H]5CC[C@]34C)c2c1
Staphylococcus aureus [6]
  MBC: 4 µg/mL (≈ 8.39 µM)
Staphylococcus aureus [7]
  MBC: 4 µg/mL (≈ 8.39 µM)
Staphylococcus aureus [8]
  MBC: 2 µg/mL (≈ 4.2 µM)
Staphylococcus aureus [2]
  MIC: 2 µg/mL (≈ 4.2 µM)
Staphylococcus aureus [3]
  MIC: 2 µg/mL (≈ 4.2 µM)
Staphylococcus aureus [4]
  MIC: 2 µg/mL (≈ 4.2 µM)
Staphylococcus aureus [5]
  MIC: 2 µg/mL (≈ 4.2 µM)
Staphylococcus aureus [9]
  MBC: 4 µg/mL (≈ 8.39 µM)

## C[C@H](Cc1c[nH]c2ccc(CN3CCC(O)C3)cc12)[C@H]1CC[C@H]2[C@@H]3CC[C@@H]4C[C@H](O)CC[C@]4(C)[C@H]3CC[C@]12C (some centres undefined)
Staphylococcus aureus [3]
  MIC: 8 µg/mL (≈ 15 µM)
Staphylococcus aureus [5]
  MIC: 16 µg/mL (≈ 30 µM)

## O=C(N[C@H](CO)[C@H](O)c1ccc([N+](=O)[O-])cc1)C(Cl)Cl
Staphylococcus aureus [1]
  Activity: inactive

## C[C@H](Cc1c[nH]c2ccc(CN3CCN(C)CC3)cc12)[C@H]1CC[C@H]2[C@@H]3CC[C@@H]4C[C@H](O)CC[C@]4(C)[C@H]3CC[C@]12C
Staphylococcus aureus [3]
  MIC: 16 µg/mL (≈ 29.3 µM)

## CN[C@H](CC(C)C)C(=O)N[C@H]1C(=O)N[C@@H](CC(N)=O)C(=O)N[C@H]2C(=O)N[C@H]3C(=O)N[C@H](C(=O)N[C@H](C(=O)O)c4cc(O)cc(O)c4-c4cc3ccc4O)[C@H](O)c3ccc(c(Cl)c3)Oc3cc2cc(c3O[C@@H]2O[C@H](CO)[C@@H](O)[C@H](O)[C@H]2O[C@H]2C[C@](C)(N)[C@H](O)[C@H](C)O2)Oc2ccc(cc2Cl)[C@H]1O [VANCOMYCIN]
Staphylococcus aureus [1]
  Activity: inactive
Staphylococcus aureus [10]
  Activity: Active
Staphylococcus aureus [11]
  Activity: 87%

## COc1ccc2[nH]cc([C@H]3CC[C@H]4[C@@H]5CCc6cc(O)ccc6[C@H]5CC[C@]34C)c2c1
Staphylococcus aureus [3]
  MIC: 16 µg/mL (≈ 39.8 µM)
Staphylococcus aureus [5]
  MIC: 32 µg/mL (≈ 79.7 µM)

## C[C@H](Cc1c[nH]c2ccc(CN3CCC(N4CCCC4)CC3)cc12)[C@H]1CC[C@H]2[C@@H]3CC[C@@H]4C[C@H](O)CC[C@]4(C)[C@H]3CC[C@]12C
Staphylococcus aureus [3]
  MIC: 16 µg/mL (≈ 26.7 µM)
Staphylococcus aureus [5]
  MIC: 16 µg/mL (≈ 26.7 µM)

## C[C@H](Cc1c[nH]c2ccc(CNc3ccc(C(F)(F)F)cc3)cc12)[C@H]1CC[C@H]2[C@@H]3CC[C@@H]4C[C@H](O)CC[C@]4(C)[C@H]3CC[C@]12C
Staphylococcus aureus [3]
  MIC: 16 µg/mL (≈ 26.4 µM)
Staphylococcus aureus [4]
  MIC: > 32 µg/mL
Staphylococcus aureus [5]
  MIC: 32 µg/mL (≈ 52.7 µM)

## COc1ccc2[nH]cc(C[C@@H](C)[C@H]3CC[C@H]4[C@@H]5[C@H](O)C[C@@H]6C[C@H](O)CC[C@]6(C)[C@H]5CC[C@]34C)c2c1
Staphylococcus aureus [2]
  MIC: 32 µg/mL (≈ 66.7 µM)
Staphylococcus aureus [3]
  MIC: 16 µg/mL (≈ 33.4 µM)
Staphylococcus aureus [4]
  MIC: 32 µg/mL (≈ 66.7 µM)
Staphylococcus aureus [5]
  MIC: 32 µg/mL (≈ 66.7 µM)

## C[C@H](Cc1c[nH]c2ccc(CN3CCOCC3)cc12)[C@H]1CC[C@H]2[C@@H]3CC[C@@H]4C[C@H](O)CC[C@]4(C)[C@H]3CC[C@]12C
Staphylococcus aureus [3]
  MIC: 16 µg/mL (≈ 30 µM)
Staphylococcus aureus [5]
  MIC: 32 µg/mL (≈ 60.1 µM)

## CCn1cc(C(=O)O)c(=O)c2cc(F)c(N3CCNCC3)cc21
Staphylococcus aureus [1]
  Activity: inactive

## CC1CN(Cc2ccc3[nH]cc(C[C@@H](C)[C@H]4CC[C@H]5[C@@H]6CC[C@@H]7C[C@H](O)CC[C@]7(C)[C@H]6CC[C@]45C)c3c2)CC(C)N1 (some centres undefined)
Staphylococcus aureus [3]
  MIC: 32 µg/mL (≈ 57.2 µM)

## C[C@H](Cc1c[nH]c2ccc(CNCCO)cc12)[C@H]1CC[C@H]2[C@@H]3CC[C@@H]4C[C@H](O)CC[C@]4(C)[C@H]3CC[C@]12C
Staphylococcus aureus [3]
  MIC: 16 µg/mL (≈ 31.6 µM)

## COc1ccc2[nH]cc(C[C@@H](C)[C@H]3CC[C@H]4[C@@H]5CC[C@@H]6C[C@H](O)CC[C@]6(C)[C@H]5CC[C@]34C)c2c1
Staphylococcus aureus [2]
  MIC: 32 µg/mL (≈ 69 µM)
Staphylococcus aureus [3]
  MIC: 16 µg/mL (≈ 34.5 µM)
Staphylococcus aureus [4]
  MIC: 32 µg/mL (≈ 69 µM)
Staphylococcus aureus [5]
  MIC: 32 µg/mL (≈ 69 µM)

## COc1ccc2[nH]cc(C[C@@H](C)[C@H]3CC[C@H]4[C@@H]5[C@H](O)C[C@@H]6C[C@H](O)CC[C@]6(C)[C@H]5C[C@H](O)[C@]34C)c2c1
Staphylococcus aureus [2]
  MIC: 32 µg/mL (≈ 64.6 µM)
Staphylococcus aureus [3]
  MIC: 16 µg/mL (≈ 32.3 µM)
Staphylococcus aureus [4]
  MIC: 32 µg/mL (≈ 64.6 µM)
Staphylococcus aureus [5]
  MIC: 32 µg/mL (≈ 64.6 µM)

## CCNCc1ccc2[nH]cc([C@H]3CC[C@H]4[C@@H]5CCc6cc(O)ccc6[C@H]5CC[C@]34C)c2c1
Staphylococcus aureus [6]
  MBC: 2 µg/mL (≈ 4.67 µM)
Staphylococcus aureus [7]
  MBC: 8 µg/mL (≈ 18.7 µM)
Staphylococcus aureus [8]
  MBC: 2 µg/mL (≈ 4.67 µM)
Staphylococcus aureus [2]
  MIC: 4 µg/mL (≈ 9.33 µM)
Staphylococcus aureus [3]
  MIC: 1 µg/mL (≈ 2.33 µM)
Staphylococcus aureus [4]
  MIC: 4 µg/mL (≈ 9.33 µM)
Staphylococcus aureus [5]
  MIC: 1 µg/mL (≈ 2.33 µM)
Staphylococcus aureus [9]
  MBC: 8 µg/mL (≈ 18.7 µM)

## COc1ccc(NCc2ccc3[nH]cc(C[C@@H](C)[C@H]4CC[C@H]5[C@@H]6CC[C@@H]7C[C@H](O)CC[C@]7(C)[C@H]6CC[C@]45C)c3c2)cc1
Staphylococcus aureus [3]
  MIC: 16 µg/mL (≈ 28.1 µM)
Staphylococcus aureus [5]
  MIC: 16 µg/mL (≈ 28.1 µM)

## COc1ccc2[nH]cc([C@H]3CC[C@H]4[C@@H]5CC[C@H]6C[C@@H](O)CC[C@]6(C)[C@H]5CC[C@]34C)c2c1
Staphylococcus aureus [3]
  MIC: 16 µg/mL (≈ 37.9 µM)
Staphylococcus aureus [5]
  MIC: 16 µg/mL (≈ 37.9 µM)

## CC1(C)S[C@@H]2[C@H](NC(=O)[C@H](N)c3ccccc3)C(=O)N2[C@H]1C(=O)O
Staphylococcus aureus [1]
  Activity: inactive

## CCCNCc1ccc2[nH]cc(C[C@@H](C)[C@H]3CC[C@H]4[C@@H]5CC[C@@H]6C[C@H](O)CC[C@]6(C)[C@H]5CC[C@]34C)c2c1
Staphylococcus aureus [3]
  MIC: 32 µg/mL (≈ 63.4 µM)
Staphylococcus aureus [5]
  MIC: 32 µg/mL (≈ 63.4 µM)

## C[C@H](Cc1c[nH]c2ccc(CO)cc12)[C@H]1CC[C@H]2[C@@H]3CC[C@@H]4C[C@H](O)CC[C@]4(C)[C@H]3CC[C@]12C
Staphylococcus aureus [3]
  MIC: 16 µg/mL (≈ 34.5 µM)
Staphylococcus aureus [4]
  MIC: 32 µg/mL (≈ 69 µM)
Staphylococcus aureus [5]
  MIC: 32 µg/mL (≈ 69 µM)

## C[C@H](Cc1c[nH]c2ccccc12)[C@H]1CC[C@H]2[C@@H]3CC[C@@H]4C[C@H](O)CC[C@]4(C)[C@H]3CC[C@]12C
Staphylococcus aureus [3]
  MIC: > 32 µg/mL

## C[C@H](Cc1c[nH]c2ccc(CN3CC(O)C3)cc12)[C@H]1CC[C@H]2[C@@H]3CC[C@@H]4C[C@H](O)CC[C@]4(C)[C@H]3CC[C@]12C
Staphylococcus aureus [2]
  MIC: 16 µg/mL (≈ 30.8 µM)
Staphylococcus aureus [3]
  MIC: 8 µg/mL (≈ 15.4 µM)
Staphylococcus aureus [4]
  MIC: 16 µg/mL (≈ 30.8 µM)
Staphylococcus aureus [5]
  MIC: 8 µg/mL (≈ 15.4 µM)

## CCNCc1ccc2[nH]cc([C@H]3CC[C@H]4[C@@H]5CC[C@H]6C[C@@H](O)CC[C@]6(C)[C@H]5CC[C@]34C)c2c1
Staphylococcus aureus [6]
  MBC: 8 µg/mL (≈ 17.8 µM)
Staphylococcus aureus [7]
  MBC: 16 µg/mL (≈ 35.7 µM)
Staphylococcus aureus [8]
  MBC: 8 µg/mL (≈ 17.8 µM)
Staphylococcus aureus [2]
  MIC: 8 µg/mL (≈ 17.8 µM)
Staphylococcus aureus [3]
  MIC: 4 µg/mL (≈ 8.91 µM)
Staphylococcus aureus [4]
  MIC: 8 µg/mL (≈ 17.8 µM)
Staphylococcus aureus [5]
  MIC: 4 µg/mL (≈ 8.91 µM)
Staphylococcus aureus [9]
  MBC: 16 µg/mL (≈ 35.7 µM)

## C[C@H](Cc1c[nH]c2ccc(CN3CCNCC3)cc12)[C@H]1CC[C@H]2[C@@H]3CC[C@@H]4C[C@H](O)CC[C@]4(C)[C@H]3CC[C@]12C
Staphylococcus aureus [2]
  MIC: 16 µg/mL (≈ 30.1 µM)
Staphylococcus aureus [3]
  MIC: 8 µg/mL (≈ 15 µM)
Staphylococcus aureus [4]
  MIC: 16 µg/mL (≈ 30.1 µM)
Staphylococcus aureus [5]
  MIC: 16 µg/mL (≈ 30.1 µM)

## C[C@H](Cc1c[nH]c2ccc(CNCCN3CCN(C)CC3)cc12)[C@H]1CC[C@H]2[C@@H]3CC[C@@H]4C[C@H](O)CC[C@]4(C)[C@H]3CC[C@]12C
Staphylococcus aureus [2]
  MIC: 4 µg/mL (≈ 6.79 µM)
Staphylococcus aureus [3]
  MIC: 2 µg/mL (≈ 3.4 µM)
Staphylococcus aureus [4]
  MIC: 4 µg/mL (≈ 6.79 µM)
Staphylococcus aureus [5]
  MIC: 2 µg/mL (≈ 3.4 µM)
